Experimental data: ChEMBL document CHEMBL5291721, “A preclinical secondary pharmacology resource illuminates target-adverse drug reaction associations of marketed drugs” (Nat Commun, 2023)
Where a SMILES comes first, the peptide text is derived from it. [ ]: non-standard residue; d: D form. pGlu = O=C1CC[C@@H](C(=O)O)N1; Thz = O=C(O)[C@@H]1CSCN1

Tests used:
[1] = target: T1, Alpha-2B adrenergic receptor (Homo sapiens, UniProt P18089)
T1 sequence (P18089 whole entry): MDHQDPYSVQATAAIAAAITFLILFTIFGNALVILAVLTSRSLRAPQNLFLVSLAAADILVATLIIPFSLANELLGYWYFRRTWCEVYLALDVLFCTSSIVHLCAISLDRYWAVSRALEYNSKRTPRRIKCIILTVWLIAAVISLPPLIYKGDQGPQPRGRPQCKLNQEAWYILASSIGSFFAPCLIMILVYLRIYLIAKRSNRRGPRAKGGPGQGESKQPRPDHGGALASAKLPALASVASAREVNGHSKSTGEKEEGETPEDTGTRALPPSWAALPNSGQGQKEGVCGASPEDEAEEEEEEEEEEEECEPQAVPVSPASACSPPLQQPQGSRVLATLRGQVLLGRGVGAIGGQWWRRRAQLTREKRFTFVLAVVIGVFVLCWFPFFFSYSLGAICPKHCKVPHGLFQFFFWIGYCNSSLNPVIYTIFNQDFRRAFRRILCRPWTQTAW

[2] = target: T2, Beta-2 adrenergic receptor (Homo sapiens, UniProt P07550); type: functional, cell-based
T2 sequence (P07550 whole entry): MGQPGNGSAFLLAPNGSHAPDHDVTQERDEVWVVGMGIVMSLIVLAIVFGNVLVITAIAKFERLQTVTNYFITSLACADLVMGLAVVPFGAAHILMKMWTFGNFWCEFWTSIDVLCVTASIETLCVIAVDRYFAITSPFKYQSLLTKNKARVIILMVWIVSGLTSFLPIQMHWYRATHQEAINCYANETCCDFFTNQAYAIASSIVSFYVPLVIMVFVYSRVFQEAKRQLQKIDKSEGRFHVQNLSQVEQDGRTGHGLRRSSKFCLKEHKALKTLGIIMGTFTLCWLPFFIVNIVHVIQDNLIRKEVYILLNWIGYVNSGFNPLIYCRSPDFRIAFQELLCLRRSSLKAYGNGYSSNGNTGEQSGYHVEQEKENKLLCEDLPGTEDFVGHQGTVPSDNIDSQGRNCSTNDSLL

[3] = target: T2, Beta-2 adrenergic receptor
Vasopressin V1a receptor = Vasopressin V1a receptor (Homo sapiens, UniProt P37288)
Vasopressin V1a receptor, sequence (P37288 whole entry): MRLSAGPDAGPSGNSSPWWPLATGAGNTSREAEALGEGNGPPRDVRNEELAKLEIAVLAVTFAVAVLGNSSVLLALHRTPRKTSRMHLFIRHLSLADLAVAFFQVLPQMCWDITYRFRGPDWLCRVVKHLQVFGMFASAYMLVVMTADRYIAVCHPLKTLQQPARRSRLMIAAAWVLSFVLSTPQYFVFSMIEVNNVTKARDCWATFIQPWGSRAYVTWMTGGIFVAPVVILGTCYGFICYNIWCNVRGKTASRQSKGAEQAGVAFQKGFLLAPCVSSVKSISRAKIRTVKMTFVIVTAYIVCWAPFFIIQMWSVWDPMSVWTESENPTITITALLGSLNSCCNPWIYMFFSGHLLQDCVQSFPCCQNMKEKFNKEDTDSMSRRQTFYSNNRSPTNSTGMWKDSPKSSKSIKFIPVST

Vasopressin V2 receptor = Vasopressin V2 receptor (Homo sapiens, UniProt P30518)
Vasopressin V2 receptor, sequence (P30518 whole entry): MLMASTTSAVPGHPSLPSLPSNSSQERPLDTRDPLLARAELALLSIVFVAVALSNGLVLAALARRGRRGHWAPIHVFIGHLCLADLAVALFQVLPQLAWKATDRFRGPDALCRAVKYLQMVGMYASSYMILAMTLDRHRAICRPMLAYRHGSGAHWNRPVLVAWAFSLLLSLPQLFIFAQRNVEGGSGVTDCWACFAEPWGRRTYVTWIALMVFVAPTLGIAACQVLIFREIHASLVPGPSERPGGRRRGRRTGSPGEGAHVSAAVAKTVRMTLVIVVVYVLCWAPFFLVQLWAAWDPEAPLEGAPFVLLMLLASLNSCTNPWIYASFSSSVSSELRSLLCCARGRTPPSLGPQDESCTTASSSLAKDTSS

[4] = target: T3, Cholecystokinin receptor type A (Homo sapiens, UniProt P32238)
T3 sequence (P32238 whole entry): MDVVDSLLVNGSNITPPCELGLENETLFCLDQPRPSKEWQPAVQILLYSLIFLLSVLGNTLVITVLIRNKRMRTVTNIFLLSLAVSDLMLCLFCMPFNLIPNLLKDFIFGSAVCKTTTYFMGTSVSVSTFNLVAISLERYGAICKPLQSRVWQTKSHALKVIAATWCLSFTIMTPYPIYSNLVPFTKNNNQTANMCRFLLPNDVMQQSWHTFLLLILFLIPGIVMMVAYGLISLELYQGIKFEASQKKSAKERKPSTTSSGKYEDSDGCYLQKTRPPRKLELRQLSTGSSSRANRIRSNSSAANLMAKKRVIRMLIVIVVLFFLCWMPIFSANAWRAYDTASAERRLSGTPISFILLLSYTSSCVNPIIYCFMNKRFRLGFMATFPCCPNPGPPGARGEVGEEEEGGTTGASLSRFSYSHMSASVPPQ

[5] = target: T4, Muscarinic acetylcholine receptor M2 (Homo sapiens, UniProt P08172); type: functional, cell-based
T4 sequence (P08172 whole entry): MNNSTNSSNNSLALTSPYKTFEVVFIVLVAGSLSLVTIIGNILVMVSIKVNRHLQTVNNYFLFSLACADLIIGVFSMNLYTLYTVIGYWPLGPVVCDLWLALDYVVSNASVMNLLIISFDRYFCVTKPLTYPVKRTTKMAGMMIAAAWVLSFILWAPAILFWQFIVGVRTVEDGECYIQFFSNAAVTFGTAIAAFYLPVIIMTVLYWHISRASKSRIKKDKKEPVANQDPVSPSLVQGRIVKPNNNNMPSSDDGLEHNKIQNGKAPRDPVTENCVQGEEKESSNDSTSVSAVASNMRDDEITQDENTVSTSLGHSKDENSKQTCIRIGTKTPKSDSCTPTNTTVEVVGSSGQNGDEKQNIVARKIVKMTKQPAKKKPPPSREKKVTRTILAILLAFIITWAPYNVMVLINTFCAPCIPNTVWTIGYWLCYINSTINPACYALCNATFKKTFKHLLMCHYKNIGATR

[6] = target: Muscarinic acetylcholine receptor M3 (Homo sapiens, UniProt P20309)
Muscarinic acetylcholine receptor M3, sequence (P20309 whole entry): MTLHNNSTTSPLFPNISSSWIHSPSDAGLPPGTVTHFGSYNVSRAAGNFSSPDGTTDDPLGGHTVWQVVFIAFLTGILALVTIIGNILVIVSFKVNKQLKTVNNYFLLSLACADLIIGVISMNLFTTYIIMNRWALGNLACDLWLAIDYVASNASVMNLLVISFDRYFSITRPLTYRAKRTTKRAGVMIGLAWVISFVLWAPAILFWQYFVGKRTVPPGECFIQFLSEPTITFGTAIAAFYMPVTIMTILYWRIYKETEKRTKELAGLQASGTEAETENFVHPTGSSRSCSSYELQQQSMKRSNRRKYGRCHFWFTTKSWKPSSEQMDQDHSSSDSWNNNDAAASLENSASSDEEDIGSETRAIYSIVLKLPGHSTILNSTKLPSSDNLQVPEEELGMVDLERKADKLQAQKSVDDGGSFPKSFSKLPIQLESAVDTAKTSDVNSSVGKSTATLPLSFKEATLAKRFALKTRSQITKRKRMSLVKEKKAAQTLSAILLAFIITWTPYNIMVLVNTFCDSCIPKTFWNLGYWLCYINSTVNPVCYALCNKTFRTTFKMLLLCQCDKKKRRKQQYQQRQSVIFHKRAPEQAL

Cannabinoid receptor 1 [7] = target: T5, Cannabinoid receptor 1 (Homo sapiens, UniProt P21554); type: functional, cell-based
T5 sequence (P21554 whole entry): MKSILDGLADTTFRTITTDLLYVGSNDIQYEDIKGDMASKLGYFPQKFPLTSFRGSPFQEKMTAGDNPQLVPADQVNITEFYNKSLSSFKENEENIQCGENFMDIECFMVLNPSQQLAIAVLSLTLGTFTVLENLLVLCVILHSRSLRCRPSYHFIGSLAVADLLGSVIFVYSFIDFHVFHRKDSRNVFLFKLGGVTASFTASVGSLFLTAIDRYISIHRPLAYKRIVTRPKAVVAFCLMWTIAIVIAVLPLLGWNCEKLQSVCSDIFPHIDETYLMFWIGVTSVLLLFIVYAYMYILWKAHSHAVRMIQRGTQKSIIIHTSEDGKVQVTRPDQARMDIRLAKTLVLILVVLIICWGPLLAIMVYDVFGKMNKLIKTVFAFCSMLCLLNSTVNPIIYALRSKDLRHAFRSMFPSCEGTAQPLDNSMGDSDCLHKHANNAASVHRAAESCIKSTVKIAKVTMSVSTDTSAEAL

Cannabinoid receptor 1 [8] = target: T5, Cannabinoid receptor 1; type: functional, cell-based; remark: listed apart in the source
[9] = target: Gamma-aminobutyric acid receptor subunit alpha-1 (Rattus norvegicus, UniProt P62813); type: functional
Gamma-aminobutyric acid receptor subunit alpha-1, sequence (P62813 whole entry): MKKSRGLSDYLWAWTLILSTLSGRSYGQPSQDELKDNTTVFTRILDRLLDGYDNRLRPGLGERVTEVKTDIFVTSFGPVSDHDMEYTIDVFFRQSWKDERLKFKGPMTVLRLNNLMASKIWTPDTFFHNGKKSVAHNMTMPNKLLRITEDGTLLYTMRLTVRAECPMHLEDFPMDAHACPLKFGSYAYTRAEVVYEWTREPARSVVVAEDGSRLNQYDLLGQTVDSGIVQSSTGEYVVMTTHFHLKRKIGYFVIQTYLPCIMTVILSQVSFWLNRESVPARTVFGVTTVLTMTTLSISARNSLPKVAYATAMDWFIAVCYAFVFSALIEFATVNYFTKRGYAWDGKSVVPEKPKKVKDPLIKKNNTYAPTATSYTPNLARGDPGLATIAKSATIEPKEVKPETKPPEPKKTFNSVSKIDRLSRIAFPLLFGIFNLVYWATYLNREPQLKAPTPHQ

Histamine H1 receptor = Histamine H1 receptor (Homo sapiens, UniProt P35367)
Histamine H1 receptor, sequence (P35367 whole entry): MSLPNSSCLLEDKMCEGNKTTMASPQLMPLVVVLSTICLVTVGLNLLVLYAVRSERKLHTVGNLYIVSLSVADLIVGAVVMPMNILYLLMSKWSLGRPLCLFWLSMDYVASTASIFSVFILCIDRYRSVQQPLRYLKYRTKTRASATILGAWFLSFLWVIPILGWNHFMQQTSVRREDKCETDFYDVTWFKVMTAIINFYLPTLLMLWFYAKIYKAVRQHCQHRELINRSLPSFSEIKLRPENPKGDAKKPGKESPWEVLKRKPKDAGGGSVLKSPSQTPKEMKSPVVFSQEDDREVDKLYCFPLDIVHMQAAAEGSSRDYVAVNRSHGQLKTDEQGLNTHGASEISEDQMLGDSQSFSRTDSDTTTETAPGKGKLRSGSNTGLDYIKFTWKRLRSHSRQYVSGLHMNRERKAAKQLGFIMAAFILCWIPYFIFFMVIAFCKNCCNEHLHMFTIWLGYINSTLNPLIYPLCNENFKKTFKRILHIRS

[10] = target: 5-hydroxytryptamine receptor 2A (Homo sapiens, UniProt P28223); type: functional, cell-based
5-hydroxytryptamine receptor 2A, sequence (P28223 whole entry): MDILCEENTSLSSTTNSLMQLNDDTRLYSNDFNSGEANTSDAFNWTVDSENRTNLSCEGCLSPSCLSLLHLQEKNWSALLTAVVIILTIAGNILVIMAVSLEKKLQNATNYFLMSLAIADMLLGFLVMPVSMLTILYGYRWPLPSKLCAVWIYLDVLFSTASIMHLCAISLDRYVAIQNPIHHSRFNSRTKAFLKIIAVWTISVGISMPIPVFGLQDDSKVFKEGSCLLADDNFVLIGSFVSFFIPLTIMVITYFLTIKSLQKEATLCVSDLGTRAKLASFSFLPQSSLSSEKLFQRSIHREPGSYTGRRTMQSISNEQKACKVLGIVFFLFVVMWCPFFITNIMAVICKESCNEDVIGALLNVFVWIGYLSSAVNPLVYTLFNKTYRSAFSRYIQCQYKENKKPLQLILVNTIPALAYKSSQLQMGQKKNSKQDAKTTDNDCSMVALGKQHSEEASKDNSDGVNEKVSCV

[11] = target: T6, Neuropeptide Y receptor type 1 (Homo sapiens, UniProt P25929)
T6 sequence (P25929 whole entry): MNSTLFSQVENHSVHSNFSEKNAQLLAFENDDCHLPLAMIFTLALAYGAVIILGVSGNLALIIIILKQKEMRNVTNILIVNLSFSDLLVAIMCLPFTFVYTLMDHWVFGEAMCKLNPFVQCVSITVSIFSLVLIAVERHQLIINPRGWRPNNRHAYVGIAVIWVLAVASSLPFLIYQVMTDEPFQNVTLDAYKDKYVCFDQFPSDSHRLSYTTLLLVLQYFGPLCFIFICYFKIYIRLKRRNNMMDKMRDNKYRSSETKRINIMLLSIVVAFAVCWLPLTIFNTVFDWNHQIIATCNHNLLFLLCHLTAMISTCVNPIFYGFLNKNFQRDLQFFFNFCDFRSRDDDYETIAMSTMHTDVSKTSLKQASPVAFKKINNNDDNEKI

[12] = target: cGMP-inhibited 3',5'-cyclic phosphodiesterase 3A (Homo sapiens, UniProt Q14432); type: functional
cGMP-inhibited 3',5'-cyclic phosphodiesterase 3A, sequence (Q14432 whole entry): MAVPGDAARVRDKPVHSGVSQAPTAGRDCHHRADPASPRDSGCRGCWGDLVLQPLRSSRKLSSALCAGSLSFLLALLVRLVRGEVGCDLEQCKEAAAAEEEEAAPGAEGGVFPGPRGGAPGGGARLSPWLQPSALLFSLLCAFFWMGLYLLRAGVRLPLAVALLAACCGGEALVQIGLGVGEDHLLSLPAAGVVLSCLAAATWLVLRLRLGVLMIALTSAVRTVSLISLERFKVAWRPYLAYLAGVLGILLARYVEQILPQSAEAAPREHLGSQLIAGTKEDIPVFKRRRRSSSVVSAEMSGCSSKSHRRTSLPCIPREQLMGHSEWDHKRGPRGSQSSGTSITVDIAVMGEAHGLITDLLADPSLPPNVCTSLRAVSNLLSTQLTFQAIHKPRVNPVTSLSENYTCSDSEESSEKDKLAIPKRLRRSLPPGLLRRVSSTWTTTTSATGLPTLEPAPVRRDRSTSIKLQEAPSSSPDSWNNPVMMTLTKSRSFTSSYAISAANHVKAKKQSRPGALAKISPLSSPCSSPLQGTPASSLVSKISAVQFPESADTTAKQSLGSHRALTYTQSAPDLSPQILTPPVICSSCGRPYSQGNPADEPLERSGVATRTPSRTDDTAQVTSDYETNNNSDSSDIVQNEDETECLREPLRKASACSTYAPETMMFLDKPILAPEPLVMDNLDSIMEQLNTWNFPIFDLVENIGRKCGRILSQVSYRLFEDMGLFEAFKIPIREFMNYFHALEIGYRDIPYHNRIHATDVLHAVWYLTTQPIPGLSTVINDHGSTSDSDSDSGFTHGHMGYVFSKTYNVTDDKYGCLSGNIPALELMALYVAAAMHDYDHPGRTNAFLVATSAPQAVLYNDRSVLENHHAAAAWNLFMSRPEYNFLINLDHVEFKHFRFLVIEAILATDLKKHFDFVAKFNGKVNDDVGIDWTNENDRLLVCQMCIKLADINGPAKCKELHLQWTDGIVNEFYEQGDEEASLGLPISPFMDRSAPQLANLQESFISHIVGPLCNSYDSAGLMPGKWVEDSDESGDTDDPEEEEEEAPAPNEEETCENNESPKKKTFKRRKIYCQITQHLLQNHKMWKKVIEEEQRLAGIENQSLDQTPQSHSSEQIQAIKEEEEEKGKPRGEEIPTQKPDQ

Endothelin-1 receptor = target: T7, Endothelin-1 receptor (Homo sapiens, UniProt P25101)
T7 sequence (P25101 whole entry): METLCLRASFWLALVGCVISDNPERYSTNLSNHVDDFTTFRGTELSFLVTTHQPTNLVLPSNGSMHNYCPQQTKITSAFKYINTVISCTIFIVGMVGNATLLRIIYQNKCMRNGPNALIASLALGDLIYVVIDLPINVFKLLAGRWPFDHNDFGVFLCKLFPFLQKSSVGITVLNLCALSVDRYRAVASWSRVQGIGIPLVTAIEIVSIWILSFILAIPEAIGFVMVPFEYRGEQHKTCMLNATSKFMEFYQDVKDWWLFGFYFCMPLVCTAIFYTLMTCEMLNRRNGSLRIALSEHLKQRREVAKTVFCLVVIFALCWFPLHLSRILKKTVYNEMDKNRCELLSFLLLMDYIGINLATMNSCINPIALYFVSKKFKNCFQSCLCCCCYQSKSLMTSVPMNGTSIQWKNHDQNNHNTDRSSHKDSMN
Further: assay procedure not described here.

Compound	AC50 [1] [µM]	AC50 [2] [µM]	AC50 [3] [µM]	AC50 (Vasopressin V1a receptor) [µM]	AC50 (Vasopressin V2 receptor) [µM]	AC50 [4] [µM]	AC50 [5] [µM]	AC50 [6] [µM]	AC50 (Cannabinoid receptor 1 [7]) [µM]	AC50 (Cannabinoid receptor 1 [8]) [µM]	AC50 [9] [µM]	AC50 (Histamine H1 receptor) [µM]	AC50 [10] [µM]	AC50 [11] [µM]	AC50 [12] [µM]	AC50 (Endothelin-1 receptor) [µM]
CC(=O)c1ccc(S(=O)(=O)NC(=O)NC2CCCCC2)cc1 [ACETOHEXAMIDE]	> 10	> 30	> 10	> 10	> 10	> 10	> 10	> 30	> 30	> 30	> 10	> 10	> 30	> 10	> 30	–
CO/N=C(\C(=O)N[C@@H]1C(=O)N2C(C(=O)O)=CCS[C@H]12)c1csc(N)n1 [CEFTIZOXIME]	–	> 30	–	> 30	> 30	> 30	> 30	–	> 30	> 30	–	> 30	> 30	> 30	> 30	> 30
CC/C=C\C/C=C\C/C=C\C/C=C\C/C=C\CCCC(=O)OCC [ICOSAPENT ETHYL]	> 30	–	> 30	> 30	> 10	> 30	> 30	> 30	> 30	> 30	> 30	> 30	> 30	> 30	> 30	> 30
COc1ccc(CN2CCN(C(c3ccc(F)cc3)c3ccc(F)cc3)CC2)c(OC)c1OC [LOMERIZINE]	19	–	> 30	> 30	> 30	> 30	> 30	> 30	> 30	23	> 30	4.5	21	> 30	> 30	> 30
CO[C@H]1C[C@H](O[C@H]2CC[C@@]3(C)[C@H](CC[C@@H]4[C@@H]3CC[C@]3(C)[C@@H](C5=CC(=O)OC5)[C@@H](OC(C)=O)C[C@]43O)C2)O[C@@H](C)[C@@H]1O [OLEANDRIN]	> 30	> 30	–	–	–	–	> 30	> 30	> 30	> 30	> 30	> 30	> 30	–	> 30	–
c1ccc(C2(N3CCCCC3)CCCCC2)cc1 [PHENCYCLIDINE]	–	> 30	–	> 30	> 30	> 30	> 30	> 30	> 30	> 30	> 30	> 30	> 30	> 30	> 30	> 30
OC[C@H]1O[C@@H](Oc2cc(O)cc(/C=C/c3ccc(O)cc3)c2)[C@H](O)[C@@H](O)[C@@H]1O [PICEID]	> 30	–	> 30	> 30	> 30	> 30	> 30	> 30	> 30	> 30	> 30	> 30	> 30	> 30	> 30	> 30
O=C1CC[C@@H](C(=O)N2CSC[C@H]2C(=O)O)N1 [PIDOTIMOD] ([pGlu]-[Thz]-OH)	> 30	–	> 30	> 30	> 30	> 30	> 30	> 30	> 30	> 30	> 30	> 30	> 30	> 30	> 30	> 30
CCC(NC(C)C)C(O)c1ccc(O)c2[nH]c(=O)ccc12 (stereo not given) [PROCATEROL]	> 30	–	0.2	> 30	> 30	> 30	> 30	> 30	> 30	> 30	> 30	> 30	> 30	> 30	> 30	> 30
CCCN1CCCC[C@H]1C(=O)Nc1c(C)cccc1C [ROPIVACAINE]	> 30	–	> 30	> 30	> 30	> 30	> 30	> 30	> 30	> 30	> 30	> 30	> 30	> 30	> 30	> 30
C=CCN1CCc2nc(N)sc2CC1 [TALIPEXOLE]	–	> 30	–	> 30	> 30	> 30	> 30	> 30	> 30	> 30	> 30	28	24	> 30	> 30	> 30
Cn1c(=O)c2c(ncn2CCOC(=O)C(C)(C)Oc2ccc(Cl)cc2)n(C)c1=O [THEOFIBRATE]	> 30	–	> 30	> 30	> 30	> 30	> 30	> 30	> 30	> 30	> 30	> 30	> 30	> 30	> 30	> 30
CC(C(=O)O)c1ccc2c(c1)CC(=O)c1ccccc1S2 (stereo not given) [ZALTOPROFEN]	> 30	–	> 30	> 30	> 30	> 30	> 30	> 30	> 30	> 30	> 30	> 30	> 30	> 30	> 30	> 30
